Data taken from ChEMBL document CHEMBL5329222, “Discovery of novel tubulin CBSI (R)-9k from the indanone scaffold for the treatment of colorectal cancer” (RSC Med Chem, 2023).
Active and inactive are the calls of the source. No cut-off for these calls is given here.

Tests used:
HeLa = test: Growth inhibition of human HeLa cells incubated for 1.5 hrs by MTT assay; assay type: functional, cell-based
A2780 = test: Growth inhibition of human A2780 cells incubated for 1.5 hrs by MTT assay; assay type: functional, cell-based; conditions: A2780, 1.5 h
CT26 = test: Growth inhibition of CT26 cells incubated for 1.5 hrs by MTT assay; assay type: functional, cell-based; conditions: Mus musculus, CT26, 1.5 h
Tubulin (Bos taurus) [1] = biological target: T1, Tubulin (Bos taurus) (UniProt Q6B856+Q862L2+Q862F3); test: (§1) Inhibition of bovine brain tubulin polymerization measured at 2 to 20 mins by spectrophotometer analysis; conditions: time 2-20 min
Tubulin = Tubulin (Bos taurus, UniProt Q6B856+Q862L2+Q862F3); test: as §1
Tubulin (Bos taurus) [2] = biological target: T1, Tubulin (Bos taurus); test: Inhibition of bovine brain tubulin polymerization at 3 uM measured at 2 to 20 mins by spectrophotometer analysis relative to control; conditions: time 2-20 min
Tubulin (Bos taurus) [3] = biological target: T1, Tubulin (Bos taurus); test: Inhibition of bovine brain tubulin polymerization at 6 uM measured at 2 to 20 mins by spectrophotometer analysis relative to control; conditions: time 2-20 min
Tubulin (Bos taurus) [4] = biological target: T1, Tubulin (Bos taurus); test: Inhibition of bovine brain tubulin polymerization at 12 uM measured at 2 to 20 mins by spectrophotometer analysis relative to control; conditions: time 2-20 min
HCT-116 [5] = test: Induction of cell cycle arrest in human HCT-116 cells assessed as accumulation of cells at G1 phase at 3 uM incubated for 24 hrs by flow cytometry analysis (reference value: 68.74%); assay type: functional
HCT-116 [6] = test: Induction of cell cycle arrest in human HCT-116 cells assessed as accumulation of cells at G1 phase at 6 uM incubated for 24 hrs by flow cytometry analysis (reference value: 68.74%); assay type: functional
HCT-116 [7] = test: Induction of cell cycle arrest in human HCT-116 cells assessed as accumulation of cells at G2/M phase at 3 uM incubated for 24 hrs by flow cytometry analysis (reference value: 18.25%); assay type: functional
HCT-116 [8] = test: Induction of cell cycle arrest in human HCT-116 cells assessed as accumulation of cells at G2/M phase at 6 uM incubated for 24 hrs by flow cytometry analysis (reference value: 18.25%); assay type: functional
HCT-116 [9] = test: Induction of cell cycle arrest in human HCT-116 cells assessed as accumulation of cells at G2 phase at 3 uM incubated for 24 hrs by flow cytometry analysis (reference value: 18.25%); assay type: functional
HCT-116 [10] = test: Induction of cell cycle arrest in human HCT-116 cells assessed as accumulation of cells at G2 phase at 6 uM incubated for 24 hrs by flow cytometry analysis (reference value: 18.25%); assay type: functional
HCT-116 [11] = test: Induction of cell cycle arrest in human HCT-116 cells assessed as accumulation of cells at S phase at 1.5 uM incubated for 24 hrs by flow cytometry analysis (reference value: 3.61%); assay type: functional
HCT-116 [12] = test: Induction of cell cycle arrest in human HCT-116 cells assessed as accumulation of cells at S phase at 3 uM incubated for 24 hrs by flow cytometry analysis (reference value: 3.61%); assay type: functional
HCT-116 [13] = test: Induction of cell cycle arrest in human HCT-116 cells assessed as accumulation of cells at S phase at 6 uM incubated for 24 hrs by flow cytometry analysis (reference value: 3.61%); assay type: functional
HCT-116 [14] = test: Induction of apoptosis in human HCT-116 cells assessed as viable cells at 1.5 uM incubated for 24 hrs by annexin V-FITC/7-AAD staining based flow cytometry analysis (reference value: 90.19%); assay type: functional; conditions: read-out: Activity
HCT-116 [15] = test: Induction of apoptosis in human HCT-116 cells assessed as viable cells at 3 uM incubated for 24 hrs by annexin V-FITC/7-AAD staining based flow cytometry analysis (reference value: 90.19%); assay type: functional; conditions: read-out: Activity
HCT-116 [16] = test: Induction of apoptosis in human HCT-116 cells assessed as viable cells at 6 uM incubated for 24 hrs by annexin V-FITC/7-AAD staining based flow cytometry analysis (reference value: 90.19%); assay type: functional; conditions: read-out: Activity
HCT-116 [17] = test: Induction of apoptosis in human HCT-116 cells assessed as early apoptotic cells at 6 uM incubated for 24 hrs by annexin V-FITC/7-AAD staining based flow cytometry analysis (reference value: 5.82%); assay type: functional
HCT-116 [18] = test: Induction of apoptosis in human HCT-116 cells assessed as late apoptotic cells at 1.5 uM incubated for 24 hrs by annexin V-FITC/7-AAD staining based flow cytometry analysis (reference value: 1.53%); assay type: functional
HCT-116 [19] = test: Induction of apoptosis in human HCT-116 cells assessed as late apoptotic cells at 3 uM incubated for 24 hrs by annexin V-FITC/7-AAD staining based flow cytometry analysis (reference value: 1.53%); assay type: functional
HCT-116 [20] = test: Induction of apoptosis in human HCT-116 cells assessed as late apoptotic cells at 6 uM incubated for 24 hrs by annexin V-FITC/7-AAD staining based flow cytometry analysis (reference value: 1.53%); assay type: functional
HCT-116 [21] = test: Induction of apoptosis in human HCT-116 cells assessed as necrotic cells at 6 uM incubated for 24 hrs by annexin V-FITC/7-AAD staining based flow cytometry analysis (reference value: 2.46%); assay type: functional
HCT-116 [22] = test: Inhibition of colony formation in human HCT-116 cells incubated for 48 hrs by crystal violet staining based analysis; assay type: functional, cell-based; conditions: dose 0.1-2 µM
HCT-116 [23] = test: Antiproliferative activity against human HCT-116 cells assessed as inhibition of cell growth at 2 uM incubated for 2 weeks by […]; assay type: functional, cell-based
HCT-116 [24] = test: Inhibition of colony formation in human HCT-116 cells at 0.5 uM incubated for 48 hrs by crystal violet staining based analysis; assay type: functional; conditions: HCT-116, 48 h, values are per cent of control
HCT-116 [25] = test: Inhibition of colony formation in human HCT-116 cells at 1 uM incubated for 48 hrs by crystal violet staining based analysis; assay type: functional; conditions: HCT-116, 48 h, values are per cent of control
HCT-116 [26] = test: Inhibition of cell migration in human HCT-116 cells at 1 uM measured for 24 hrs by scratch wound healing assay; assay type: functional
HCT-116 [27] = test: Inhibition of cell migration in human HCT-116 cells at 5 uM measured for 24 hrs by scratch wound healing assay; assay type: functional
HCT-116 [28] = test: Inhibition of cell migration in human HCT-116 cells measured for 24 hrs by scratch wound healing assay; assay type: functional, cell-based; conditions: dose 0.5-5 µM
[29] = Cytotoxicity against HEK293 cells assessed as inhibition of cell growth incubated 1.5 hrs by MTT assay; assay type: toxicity, cell-based; conditions: human
[30] = Cytotoxicity against human HUVEC cells assessed as inhibition of cell growth incubated 1.5 hrs by MTT assay; assay type: toxicity, cell-based
[31] = Potency index, ratio of test compound IC50 to 5-fluorouracil IC50 for cytotoxicity against HEK293 cells assessed as inhibition of cell growth incubated 1.5 hrs by MTT assay; assay type: toxicity, cell-based; conditions: human, read-out: Ratio IC50
[32] = Potency index, ratio of test compound IC50 to 5-fluorouracil IC50 for cytotoxicity against human HUVEC cells assessed as inhibition of cell growth incubated 1.5 hrs by MTT assay; assay type: toxicity, cell-based; conditions: read-out: Ratio IC50
hERG (KCNH2) = hERG (KCNH2) (Homo sapiens, UniProt Q12809); test: Inhibition of hERG expressed in CHO cells at 40 uM by automated patch clamp analysis relative to control; assay type: toxicity, cell-based; conditions: CHO cells that express hERG
[33] = biological target: Voltage-gated inwardly rectifying potassium channel KCNH2 (Homo sapiens, UniProt Q12809); test: Inhibition of hERG expressed in CHO cells at 40 uM by automated patch clamp analysis; assay type: toxicity, cell-based
Chain of Voltage-gated inwardly rectifying potassium channel KCNH2 (Q12809 whole entry): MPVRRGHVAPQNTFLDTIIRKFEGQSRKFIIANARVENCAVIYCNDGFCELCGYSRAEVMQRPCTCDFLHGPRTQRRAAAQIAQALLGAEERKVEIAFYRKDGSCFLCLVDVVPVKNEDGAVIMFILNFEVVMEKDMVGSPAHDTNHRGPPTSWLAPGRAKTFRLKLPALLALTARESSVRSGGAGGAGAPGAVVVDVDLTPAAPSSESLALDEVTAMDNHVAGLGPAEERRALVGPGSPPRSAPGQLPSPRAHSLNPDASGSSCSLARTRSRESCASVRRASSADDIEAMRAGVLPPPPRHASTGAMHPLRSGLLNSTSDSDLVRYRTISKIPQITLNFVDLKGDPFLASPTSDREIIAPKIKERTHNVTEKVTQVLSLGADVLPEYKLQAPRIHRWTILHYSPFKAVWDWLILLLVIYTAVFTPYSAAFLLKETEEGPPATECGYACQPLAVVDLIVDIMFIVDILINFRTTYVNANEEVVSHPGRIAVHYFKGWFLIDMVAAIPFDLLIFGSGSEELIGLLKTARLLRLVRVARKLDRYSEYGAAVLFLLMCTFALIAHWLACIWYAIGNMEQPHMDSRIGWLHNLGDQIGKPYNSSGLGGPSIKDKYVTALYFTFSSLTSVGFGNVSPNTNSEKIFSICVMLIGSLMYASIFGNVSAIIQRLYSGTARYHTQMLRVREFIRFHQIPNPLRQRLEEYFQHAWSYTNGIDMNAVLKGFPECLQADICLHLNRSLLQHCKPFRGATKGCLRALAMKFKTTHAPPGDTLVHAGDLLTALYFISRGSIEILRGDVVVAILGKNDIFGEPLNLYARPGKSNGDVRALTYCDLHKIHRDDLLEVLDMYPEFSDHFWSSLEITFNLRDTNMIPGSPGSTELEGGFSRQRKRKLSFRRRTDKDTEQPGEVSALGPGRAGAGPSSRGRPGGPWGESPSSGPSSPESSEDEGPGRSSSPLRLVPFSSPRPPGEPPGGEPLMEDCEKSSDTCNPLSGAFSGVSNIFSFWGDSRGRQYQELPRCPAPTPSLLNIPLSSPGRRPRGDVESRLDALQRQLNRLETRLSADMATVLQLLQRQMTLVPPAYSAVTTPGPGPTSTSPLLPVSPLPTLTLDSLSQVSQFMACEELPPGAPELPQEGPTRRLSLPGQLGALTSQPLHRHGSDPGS

Chain of hERG (KCNH2) (Q12809 whole entry): as above

Q: For CCOc1ccc([C@H]2CC(=O)c3cc(OC)c(OC)c(OC)c32)cc1F, which IC50 (HeLa) is on record?
A: 0.38 µM

Q: And the IC50 (A2780)?
A: 0.59 µM

Q: And the IC50 (CT26)?
A: 4.11 µM

Q: And the inhibition (Tubulin (Bos taurus) [1])?
A: Dose-Dependent Effect

Q: And the IC50 (Tubulin)?
A: 6.1 µM

Q: And the inhibition (Tubulin (Bos taurus) [2])?
A: 30%

Q: And the inhibition (Tubulin (Bos taurus) [3])?
A: 54%

Q: And the inhibition (Tubulin (Bos taurus) [4])?
A: 66%

Q: And the Activity (HCT-116 [5])?
A: 62.85%

Q: And the Activity (HCT-116 [6])?
A: 35.2%

Q: What about the Activity (HCT-116 [7]) of the same compound?
A: 28.73%

Q: What about the Activity (HCT-116 [8]) of the same compound?
A: 47.34%

Q: And the Activity (HCT-116 [9])?
A: 28.73%

Q: And the Activity (HCT-116 [10])?
A: 47.34%

Q: And the Activity (HCT-116 [11])?
A: 7.57%

Q: What about the Activity (HCT-116 [12]) of the same compound?
A: 6.6%

Q: And the Activity (HCT-116 [13])?
A: 5.1%

Q: What about the viability at 1.5 µM (HCT-116 [14]) of the same compound?
A: 86.7%

Q: And the viability at 3 µM (HCT-116 [15])?
A: 73%

Q: What about the viability at 6 µM (HCT-116 [16]) of the same compound?
A: 60.5%

Q: What about the Activity (HCT-116 [17]) of the same compound?
A: 21.2%

Q: What about the Activity (HCT-116 [18]) of the same compound?
A: 2.85%

Q: What about the Activity (HCT-116 [19]) of the same compound?
A: 5.07%

Q: What about the Activity (HCT-116 [20]) of the same compound?
A: 13.77%

Q: What about the Activity (HCT-116 [21]) of the same compound?
A: 4.48%

Q: And the inhibition (HCT-116 [22])?
A: Dose-Dependent Effect

Q: What about the Activity (HCT-116 [23]) of the same compound?
A: Active

Q: And the growth, % of control at 0.5 µM (HCT-116 [24])?
A: 30.8%

Q: And the growth, % of control at 1 µM (HCT-116 [25])?
A: 1.3%

Q: And the inhibition at 1 µM (HCT-116 [26])?
A: 43%

Q: And the inhibition at 5 µM (HCT-116 [27])?
A: 80%

Q: And the inhibition (HCT-116 [28])?
A: Dose-Dependent Effect

Q: What about the IC50 at 1.5 h [29] of the same compound?
A: 7.45 µM

Q: And the IC50 at 1.5 h [30]?
A: 15 µM

Q: And the selectivity ratio at 1.5 h [31]?
A: 1.39

Q: And the selectivity ratio at 1.5 h [32]?
A: 1.6

Q: What about the inhibition at 40 µM (hERG (KCNH2)) of the same compound?
A: 42%

Q: What about the IC50 [33] of the same compound?
A: > 40 µM
